# Target: ATP-dependent translocase ABCB1 (Homo sapiens, UniProt P08183)
# Assay: TP_TRANSPORTER: transepithelial transport (basal to apical) in MDR1-expressing LLC-PK1 cells
# Format: functional, cell-based
# Conditions: pig
# ATP-dependent translocase ABCB1, sequence (P08183 whole entry): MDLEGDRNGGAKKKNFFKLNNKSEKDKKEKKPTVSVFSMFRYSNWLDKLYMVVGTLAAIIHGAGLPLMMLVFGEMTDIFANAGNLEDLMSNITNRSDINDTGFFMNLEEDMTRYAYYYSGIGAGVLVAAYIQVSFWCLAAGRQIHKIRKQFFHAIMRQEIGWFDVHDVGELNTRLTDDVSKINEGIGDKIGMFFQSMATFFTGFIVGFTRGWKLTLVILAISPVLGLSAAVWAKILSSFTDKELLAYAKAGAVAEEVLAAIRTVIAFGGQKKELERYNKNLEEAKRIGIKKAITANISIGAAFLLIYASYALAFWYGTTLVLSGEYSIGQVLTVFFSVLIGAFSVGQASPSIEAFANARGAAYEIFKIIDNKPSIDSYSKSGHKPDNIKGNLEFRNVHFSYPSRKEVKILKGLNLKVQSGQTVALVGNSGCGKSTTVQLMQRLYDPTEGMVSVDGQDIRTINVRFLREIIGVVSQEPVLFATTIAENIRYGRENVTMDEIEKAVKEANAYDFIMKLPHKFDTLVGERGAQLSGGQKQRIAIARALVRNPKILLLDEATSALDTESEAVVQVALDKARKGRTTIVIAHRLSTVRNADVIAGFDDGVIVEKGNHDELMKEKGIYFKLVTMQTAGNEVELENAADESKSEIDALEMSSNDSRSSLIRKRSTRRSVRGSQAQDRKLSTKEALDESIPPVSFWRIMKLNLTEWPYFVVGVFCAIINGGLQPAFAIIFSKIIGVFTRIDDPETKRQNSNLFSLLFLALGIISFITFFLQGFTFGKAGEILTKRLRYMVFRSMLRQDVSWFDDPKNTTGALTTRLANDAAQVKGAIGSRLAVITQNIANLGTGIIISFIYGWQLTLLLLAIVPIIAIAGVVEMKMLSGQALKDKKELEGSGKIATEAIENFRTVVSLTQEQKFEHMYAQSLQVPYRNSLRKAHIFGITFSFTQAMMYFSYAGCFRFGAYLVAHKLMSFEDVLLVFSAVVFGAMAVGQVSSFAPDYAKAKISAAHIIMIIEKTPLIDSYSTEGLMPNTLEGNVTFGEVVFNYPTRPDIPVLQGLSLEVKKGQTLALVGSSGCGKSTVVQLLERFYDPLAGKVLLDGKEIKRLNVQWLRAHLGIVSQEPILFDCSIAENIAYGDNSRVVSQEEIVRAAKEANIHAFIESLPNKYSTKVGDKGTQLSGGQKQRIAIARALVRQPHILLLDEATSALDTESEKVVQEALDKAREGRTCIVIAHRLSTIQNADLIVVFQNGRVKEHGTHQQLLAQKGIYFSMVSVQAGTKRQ
smiles,measurement,value
CC(=O)O[C@@]12CO[C@@H]1C[C@H](O)[C@@]1(C)C(=O)[C@H](O)C3=C(C)[C@@H](OC(=O)[C@H](O)[C@@H](NC(=O)OC(C)(C)C)c4ccccc4)C[C@@](O)([C@@H](OC(=O)c4ccccc4)[C@H]21)C3(C)C.O.O.O [DOCETAXEL],Activity,substrate [+]

# From ChEMBL document CHEMBL2073883, “Interaction of docetaxel ("Taxotere") with human P-glycoprotein” (Jpn J Cancer Res, 1999)
